Legend:
Parameters in all cases: species or system rat
[1] = tested on: intestinal peristaltic motility; experiment: Test 2: peristaltic motility, combinations of HAS with 6-S or 6-G, same manner as Test 1; conditions: for AUC (area under curve peak) / Mean-PPA (mean of peak pressure amplitude) / PF (peak frequency): value before addition = 100%; for enhancement of the prokinetic effect on peristaltic motility by combining with HAS (in words): combined with HAS at a dose too low to exert the effect when used alone
Description: (§1) Normal rats which fasted overnight with free access to water were decapitated for mercy killing. Immediately, the intestine was removed and cut into 3-4 cm pieces, which were used as test samples. The removed test samples were immersed in an organ bath (perfusion rate: 3.5 mL/min) filled with a Krebs solution warmed at 32-33° C. and saturated with 95% O2/5% CO2 gas mixture. […] From the mouth side, physiological saline was injected at a certain rate (0.15 mL/min), and the frequency and amplitude of the pressure change in the lumen caused by the intestinal peristaltic motility were measured by means of a microchip pressure transducer (SPR-524, Millar Instruments Co.). After confirmation of the stabilized peristaltic motility in the test samples (intestinal tract), a test drug was added to the organ bath. Before and after the addition, the change of peristaltic motility for 10 minutes was determined by using recorded wave profile for the mean peak pressure amplitude (mean-PPA), the area under curve (AUC) of the peak and the peak frequency (PF) in the transducer. The resulting recorded wave profile was converted into numerical terms as the amplitude or frequency of the peristaltic motility by an analysis software. The value before the addition of the test drug was regarded as 100% for comparison and evaluation.
On the basis of the prokinetic effect of HAS, 6-S and 6-G on peristaltic motility in Test 1, the change of the prokinetic effect in a combination of these compounds was investigated in the same manner as in Test 1.

[2] = tested on: large intestinal peristaltic motility; experiment: Test 1: action of each Daikenchuto component on peristaltic motility of the isolated intestine in an organ bath; conditions: for AUC (area under curve peak) / Mean-PPA (mean of peak pressure amplitude) / PF (peak frequency): value before addition = 100%
Description: Investigation of the Action of Each Crude Drug Component Contained in Daikenchuto on the Large Intestinal Peristaltic Motility:
Rats were used as experimental animals. According to the following way, the components contained in Daikenchuto, i.e., HAS, 6-shogaol (hereinafter abbreviated as “6-S”) and 6-gingerol (hereinafter abbreviated as “6-G”), were tested for the action on the peristaltic motility.
Male SD rats (provided by Japan Charles River Co.; SPF animals) were obtained at 6 weeks of age (body weight: 190-220 g) and the test was started at 7-9 weeks of age (body weight: 220-280 g at acquisition and using). Breeding was conducted at a temperature of 20-26° C. and a humidity of 35-75%, in aeration frequency of 15-25/hour in a cage under lighting for 12 hours (7 o'clock to 19 o'clock) per day, wherein 4 rats were placed in a cage. For feeding, solid feed MF (Oriental Yeast Co., Ltd.) was used, and the rats were able to freely drink ordinary tap water (Amimachi, Ibaraki Pref).
as §1

[3] = tested on: intestinal peristaltic motility; experiment: Test 4: peristaltic motility, HAS and bethanechol chloride alone and combined, same manner as Test 1; conditions: for AUC (area under curve peak) / Mean-PPA (mean of peak pressure amplitude) / PF (peak frequency): value before addition = 100%
Description: as §1, with “After confirmation of the stabilized peristaltic motility in the test samples (intestinal tract), a test drug was added to the organ bath. Before and after the addition, the change of peristaltic motility for 10 minutes was determined by using recorded wave profile for the mean peak pressure amplitude (mean-PPA), the area under curve (AUC) of the peak and the peak frequency (PF) in the transducer.” left out

[4] = tested on: intestinal peristaltic motility; experiment: Test 3: peristaltic motility, HAS and CAP alone and combined, same manner as Test 1; conditions: for AUC (area under curve peak) / Mean-PPA (mean of peak pressure amplitude) / PF (peak frequency): value before addition = 100%
Description: as §1
The respective prokinetic effect of HAS and CAP on peristaltic motility and change of the effect in a combination of these compounds were investigated in the same manner as in Test 1.

[5] = HAS 3 μM + CAP 0.03 μM versus CAP alone

| SMILES | AUC (area under curve peak) ([1]; 3 μM) [%] | Mean-PPA (mean of peak pressure amplitude) ([1]; 3 μM) [%] | PF (peak frequency) ([1]; 3 μM) [%] | enhancement of the prokinetic effect on peristaltic motility by combining with HAS (in words) [1] | prokinetic effect on peristaltic motility (in words) ([2]; 1 μM) | AUC (area under curve peak) ([2]; 1 μM) [%] | Mean-PPA (mean of peak pressure amplitude) ([2]; 1 μM) [%] | PF (peak frequency) ([2]; 1 μM) [%] | prokinetic effect on peristaltic motility (in words) ([2]; 10 μM) | AUC (area under curve peak) ([2]; 10 μM) [%] | Mean-PPA (mean of peak pressure amplitude) ([2]; 10 μM) [%] | PF (peak frequency) ([2]; 10 μM) [%] | also measured |
| --- | --- | --- | --- | --- | --- | --- | --- | --- | --- | --- | --- | --- | --- |
| CCCCC[C@H](O)CC(=O)CCc1ccc(O)c(OC)c1 [6-G, 6-gingerol] | 174.9 | 235.8 | 102.9 | potent enhancement | weak prokinetic effect | 120.5 | 141.1 | 115.0 | significant prokinetic effect | 188.2 | 304.2 | 76.9 | – |
| CCCCC/C=C/C(=O)CCc1ccc(O)c(OC)c1 [6-S, 6-shogaol] | – | – | – | potent enhancement | promoted weakly | 133.3 | 202.6 | 102.6 | prokinetic effect disappeared | 73.4 | 94.6 | 120.8 | AUC (area under curve peak) ([1]; 1 μM): 133.3%; Mean-PPA (mean of peak pressure amplitude) ([1]; 1 μM): 202.6%; PF (peak frequency) ([1]; 1 μM): 115.0% |
| C/C=C/C=C/C=C\CC/C=C/C(=O)NCC(C)(C)O [HAS, Hydroxy-α-sanshool] | 99.0 | 101.2 | 93.0 | – | – | – | – | – | very strong prokinetic effect | 227.9 | 478.2 | 52.5 | AUC (area under curve peak) ([3]; 3 μM): 130.6%; Mean-PPA (mean of peak pressure amplitude) ([3]; 3 μM): 105.2%; PF (peak frequency) ([3]; 3 μM): 84.6%; enhancement by HAS of the increase in PF induced by Beth ([3]; HAS 3 μM + Beth 1 μM versus Beth alone): twice or more; AUC (area under curve peak) ([4]; 3 μM): 110.2%; Mean-PPA (mean of peak pressure amplitude) ([4]; 3 μM): 105.7%; PF (peak frequency) ([4]; 3 μM): 98.7%; enhancement by HAS of the increase in AUC induced by CAP [4, 5]: ~4.6 times; enhancement by HAS of the increase in PPA induced by CAP [4, 5]: about 9.8 times; prokinetic effect on peristaltic motility (in words) ([2]; 3 μM): no influence; AUC (area under curve peak) ([2]; 3 μM): 121.5%; Mean-PPA (mean of peak pressure amplitude) ([2]; 3 μM): 119.5%; PF (peak frequency) ([2]; 3 μM): 98.3% |
| COc1cc(CNC(=O)CCCC/C=C/C(C)C)ccc1O [CAP, capsaicin] | – | – | – | – | – | – | – | – | – | – | – | – | AUC (area under curve peak) ([4]; 0.03 μM): 147.1%; Mean-PPA (mean of peak pressure amplitude) ([4]; 0.03 μM): 143.7%; PF (peak frequency) ([4]; 0.03 μM): 108.1% |
| CC(C[N+](C)(C)C)OC(N)=O (centres unmarked) [Beth, bethanechol chloride] | – | – | – | – | – | – | – | – | – | – | – | – | AUC (area under curve peak) ([3]; 1 μM): 87.6%; Mean-PPA (mean of peak pressure amplitude) ([3]; 1 μM): 98.9%; PF (peak frequency) ([3]; 1 μM): 153.8% |

— patent publication US8623914B2, “Medical composition” (TSUMURA & Co., priority 2011, dated 2014)
